Laboratory results published in BindingDB's records for doi:10.1021/jm960581w (Sphinx Laboratories, 1996).

target: cAMP-dependent protein kinase catalytic subunit alpha (Bos taurus, UniProt P00517); experiment: PKA assay
Experimental: The activity of PKA, activated by cAMP, is measured by its ability to transfer phosphate from [gamma-32P]ATP to histone.

Structure (SMILES) | IC50 [µM]
Cc1ccc(S(=O)(=O)N2CCC[C@@H](OC(=O)c3cc(O)c(C(=O)c4c(O)cccc4C(=O)O)c(O)c3)[C@H](NC(=O)c3ccc(O)cc3)C2)cc1 [2-{[2,6-dihydroxy-4-({[(3R,4R)-3-[(4-hydroxybenzene)amido]-1-[(4-methylbenzene)sulfonyl]azepan-4-yl]oxy}carbonyl)phenyl]carbonyl}-3-hydroxybenzoic acid] | > 150
O=C(OCCCCc1ccc(O)cc1)c1cc(O)c(C(=O)c2c(O)cccc2C(=O)O)c(O)c1 [2-[(2,6-dihydroxy-4-{[4-(4-hydroxyphenyl)butoxy]carbonyl}phenyl)carbonyl]-3-hydroxybenzoic acid] | > 50
CS(=O)(=O)NC(COC(=O)c1cc(O)c(C(=O)c2c(O)cccc2C(=O)O)c(O)c1)Cc1ccc(O)cc1 (racemic) [(+-)-2-[[2,6-Dihydroxy-4-[[[3-(4-hydroxyphenyl)-2-[(methylsulfonyl)amino]propyl]oxy]carbonyl]phenyl]carbonyl]-3-hydroxybenzoic Acid] | > 50
CC(CCc1ccc(O)cc1)OC(=O)c1cc(O)c(C(=O)c2c(O)cccc2C(=O)O)c(O)c1 (stereo not drawn) [(+-)-2-[[2,6-Dihydroxy-4-[[[3-(4-hydroxyphenyl)-1-methylpropyl]oxy]carbonyl]phenyl]carbonyl]-3-hydroxybenzoic Acid] | > 50
COC(=O)c1cccc(O)c1C(=O)c1c(O)cc(C(=O)O[C@@H]2CCC[C@H]2Cc2ccc(O)cc2)cc1O [(1R,2S)-2-[(4-hydroxyphenyl)methyl]cyclopentyl 3,5-dihydroxy-4-{[2-hydroxy-6-(methoxycarbonyl)phenyl]carbonyl}benzoate] | > 50
O=C(O[C@@H]1CCC[C@H]1Oc1ccc(O)cc1)c1cc(O)c(C(=O)c2c(O)cccc2C(=O)O)c(O)c1 (racemic) [2-{[2,6-dihydroxy-4-({[(1R,2R)-2-(4-hydroxyphenoxy)cyclopentyl]oxy}carbonyl)phenyl]carbonyl}-3-hydroxybenzoic acid] | > 50
O=C(O[C@@H]1CCC[C@@H]1Cc1ccc(O)cc1)c1cc(O)c(C(=O)c2c(O)cccc2C(=O)O)c(O)c1 [2-{[2,6-dihydroxy-4-({[(1R,2R)-2-[(4-hydroxyphenyl)methyl]cyclopentyl]oxy}carbonyl)phenyl]carbonyl}-3-hydroxybenzoic acid] | > 50
O=C(O[C@@H]1CCC[C@H]1Cc1ccc(O)cc1)c1cc(O)c(C(=O)c2c(O)cccc2C(=O)O)c(O)c1 (racemic) [2-{[2,6-dihydroxy-4-({[(1R,2S)-2-[(4-hydroxyphenyl)methyl]cyclopentyl]oxy}carbonyl)phenyl]carbonyl}-3-hydroxybenzoic acid] | > 50

Other lines, results leading:

IC50 [µM] | Structure (SMILES)
> 50 | O=C(OCCCc1ccc(O)cc1)c1cc(O)c(C(=O)c2c(O)cccc2C(=O)O)c(O)c1 [2-[[2,6-Dihydroxy-4-[[[3-(4-hydroxyphenyl)propyl]oxy]carbonyl]phenyl]carbonyl]-3-hydroxybenzoic Acid]
> 50 | O=C(OCC(Cc1ccc(O)cc1)NS(=O)(=O)c1ccccc1)c1cc(O)c(C(=O)c2c(O)cccc2C(=O)O)c(O)c1 (racemic) [(+-)-2-[[2,6-Dihydroxy-4-[[[3-(4-hydroxyphenyl)-2-[(phenylsulfonyl)amino]propyl]oxy]carbonyl]phenyl]carbonyl]-3-hydroxybenzoic Acid]
> 50 | O=C(NC(COC(=O)c1cc(O)c(C(=O)c2c(O)cccc2C(=O)O)c(O)c1)Cc1ccc(O)cc1)c1ccccc1 (racemic) [2-[(2,6-dihydroxy-4-{[3-(4-hydroxyphenyl)-2-(phenylformamido)propoxy]carbonyl}phenyl)carbonyl]-3-hydroxybenzoic acid]
> 50 | CN(C)C(COC(=O)c1cc(O)c(C(=O)c2c(O)cccc2C(=O)O)c(O)c1)Cc1ccc(O)cc1 (racemic) [2-[(4-{[2-(dimethylamino)-3-(4-hydroxyphenyl)propoxy]carbonyl}-2,6-dihydroxyphenyl)carbonyl]-3-hydroxybenzoic acid]
> 50 | COC(=O)c1cccc(O)c1C(=O)c1c(O)cc(C(=O)OC[C@H](Cc2ccc(O)cc2)NS(=O)(=O)c2ccccc2)cc1O [(S)-Methyl 2-[[2,6-Dihydroxy-4-[[[3-(4-hydroxyphenyl)-2-[(phenylsulfonyl)amino]propyl]oxy]carbonyl]phenyl]carbonyl]-3-hydroxybenzoate]
> 50 | O=C(OC[C@H](Cc1ccc(O)cc1)NS(=O)(=O)c1ccccc1)c1cc(O)c(C(=O)c2c(O)cccc2C(=O)O)c(O)c1 [2-[(4-{[(2S)-2-benzenesulfonamido-3-(4-hydroxyphenyl)propoxy]carbonyl}-2,6-dihydroxyphenyl)carbonyl]-3-hydroxybenzoic acid]
> 50 | O=C(NC(COC(=O)c1cc(O)c(C(=O)c2c(O)cccc2C(=O)O)c(O)c1)Cc1ccc(O)cc1)c1ccc(O)cc1 (stereo not drawn) [(+-)-2-[[2,6-Dihydroxy-4-[[[3-(4-hydroxyphenyl)-2-[[(4-hydroxyphenyl)carbonyl]amino]propyl]oxy]carbonyl]phenyl]carbonyl]-3-hydroxybenzoic Acid]
> 50 | O=C(OCC(NS(=O)(=O)c1ccccc1)c1ccc(O)cc1)c1cc(O)c(C(=O)c2c(O)cccc2C(=O)O)c(O)c1 (racemic) [2-[(4-{[2-benzenesulfonamido-2-(4-hydroxyphenyl)ethoxy]carbonyl}-2,6-dihydroxyphenyl)carbonyl]-3-hydroxybenzoic acid]
> 50 | O=C(OCC(Cc1ccc(O)cc1)NS(=O)(=O)c1ccc2ccccc2c1)c1cc(O)c(C(=O)c2c(O)cccc2C(=O)O)c(O)c1 (stereo not drawn) [(+-)-2-[[2,6-Dihydroxy-4-[[[3-(4-hydroxyphenyl)-2-[(naphthylsulfonyl)amino]propyl]oxy]carbonyl]phenyl]carbonyl]-3-hydroxybenzoic Acid]
> 50 | O=C(OCC(COc1ccc(O)cc1)NS(=O)(=O)c1ccccc1)c1cc(O)c(C(=O)c2c(O)cccc2C(=O)O)c(O)c1 (racemic) [2-[(4-{[2-benzenesulfonamido-3-(4-hydroxyphenoxy)propoxy]carbonyl}-2,6-dihydroxyphenyl)carbonyl]-3-hydroxybenzoic acid]
> 50 | O=C(OC[C@@H](Cc1ccc(O)cc1)NS(=O)(=O)c1ccccc1)c1cc(O)c(C(=O)c2c(O)cccc2C(=O)O)c(O)c1 [2-[(4-{[(2R)-2-benzenesulfonamido-3-(4-hydroxyphenyl)propoxy]carbonyl}-2,6-dihydroxyphenyl)carbonyl]-3-hydroxybenzoic acid]
